Data taken from US20250243180A1, “TARGETED PROTEIN DEGRADATION” (Monte Rosa Therapeutics AG, priority 2023, published 2025).
Where two headings read alike, the source gives them in different places.

What was measured:
CRBN-DDB1 = CRBN-DDB1 (Homo sapiens (Human), UniProt Q96SW2); assay: Compound binding to CRBN by HTRF assay
How it was run: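 HTRF displacement of Cy5-thalidomide probe (100 nM) from His-tagged CRBN-DDB1 (2.5 nM) with anti-His terbium cryptate, in HEPES/NaCl/TCEP/EDTA/Tween20 buffer; 11-point 1:3 dilution series, 30 min at ambient temperature. Signal (665/620 nm) normalized to lenalidomide and DMSO controls; EC50 fitted, Ki by Cheng-Prusoff from geometric mean EC50.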

NEK7 = NEK7 (Homo sapiens (Human), UniProt Q8TDX7+Q96SW2); assay: NEK7 NanoBiT degradation assay in Cal51 NEK7 NanoBiT cell line; type: cell-based; settings: Cal51 NEK7 NanoBiT cells, 24 hours; for Dmax: CAL-51
NEK7, sequence (Q8TDX7 whole entry): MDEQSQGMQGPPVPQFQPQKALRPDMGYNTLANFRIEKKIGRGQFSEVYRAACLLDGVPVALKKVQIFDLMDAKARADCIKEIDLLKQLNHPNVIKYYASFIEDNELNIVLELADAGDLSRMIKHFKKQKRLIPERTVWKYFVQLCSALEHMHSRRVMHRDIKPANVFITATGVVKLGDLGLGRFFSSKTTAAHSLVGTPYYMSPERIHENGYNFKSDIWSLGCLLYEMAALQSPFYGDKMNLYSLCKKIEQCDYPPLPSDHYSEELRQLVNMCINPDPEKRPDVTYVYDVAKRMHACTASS
NEK7, sequence (Q96SW2 whole entry): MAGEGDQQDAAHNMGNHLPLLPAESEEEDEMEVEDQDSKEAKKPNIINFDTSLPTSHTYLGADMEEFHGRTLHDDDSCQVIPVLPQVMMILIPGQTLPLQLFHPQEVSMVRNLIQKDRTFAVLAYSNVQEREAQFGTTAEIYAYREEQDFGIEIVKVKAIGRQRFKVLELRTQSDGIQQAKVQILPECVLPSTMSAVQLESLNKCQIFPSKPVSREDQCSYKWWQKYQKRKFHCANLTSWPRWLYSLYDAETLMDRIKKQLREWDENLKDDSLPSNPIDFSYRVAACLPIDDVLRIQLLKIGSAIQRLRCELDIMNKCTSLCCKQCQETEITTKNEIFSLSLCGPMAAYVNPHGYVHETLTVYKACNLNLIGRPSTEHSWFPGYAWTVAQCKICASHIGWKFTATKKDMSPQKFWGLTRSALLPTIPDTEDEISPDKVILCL
NEK7, sequence (Q16531 2-1140 partner): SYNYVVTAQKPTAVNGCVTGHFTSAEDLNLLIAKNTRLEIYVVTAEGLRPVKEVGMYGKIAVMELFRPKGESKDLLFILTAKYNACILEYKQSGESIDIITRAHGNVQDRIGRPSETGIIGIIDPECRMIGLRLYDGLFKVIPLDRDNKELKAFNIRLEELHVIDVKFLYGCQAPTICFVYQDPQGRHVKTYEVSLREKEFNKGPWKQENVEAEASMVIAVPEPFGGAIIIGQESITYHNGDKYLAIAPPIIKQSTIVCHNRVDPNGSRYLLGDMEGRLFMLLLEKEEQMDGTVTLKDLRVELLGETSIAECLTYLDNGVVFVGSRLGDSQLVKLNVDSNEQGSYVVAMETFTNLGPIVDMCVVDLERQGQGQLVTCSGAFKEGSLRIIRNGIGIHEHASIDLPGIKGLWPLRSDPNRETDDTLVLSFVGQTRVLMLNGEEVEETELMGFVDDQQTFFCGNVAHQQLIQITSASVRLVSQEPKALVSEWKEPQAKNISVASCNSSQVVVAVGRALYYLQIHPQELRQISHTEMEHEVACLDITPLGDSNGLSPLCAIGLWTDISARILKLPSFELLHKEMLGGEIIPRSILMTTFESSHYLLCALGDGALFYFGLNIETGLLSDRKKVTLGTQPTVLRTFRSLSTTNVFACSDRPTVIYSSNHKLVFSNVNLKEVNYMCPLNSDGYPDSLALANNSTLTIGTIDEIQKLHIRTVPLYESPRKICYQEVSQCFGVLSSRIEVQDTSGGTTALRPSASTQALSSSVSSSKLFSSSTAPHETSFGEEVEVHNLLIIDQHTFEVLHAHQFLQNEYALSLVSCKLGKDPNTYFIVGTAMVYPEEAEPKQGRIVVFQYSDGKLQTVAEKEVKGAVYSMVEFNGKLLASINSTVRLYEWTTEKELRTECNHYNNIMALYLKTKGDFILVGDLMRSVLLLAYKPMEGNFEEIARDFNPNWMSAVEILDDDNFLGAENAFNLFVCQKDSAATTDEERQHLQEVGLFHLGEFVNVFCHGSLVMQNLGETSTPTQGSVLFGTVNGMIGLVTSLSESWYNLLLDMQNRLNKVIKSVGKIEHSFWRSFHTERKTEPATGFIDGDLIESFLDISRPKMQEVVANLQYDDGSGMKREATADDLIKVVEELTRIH
How it was run: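 Cal51 cells with CRISPR knock-in HiBiT-tagged endogenous NEK7 plus stable LgBiT, in live-cell Endurazine medium, seeded 16 h before dosing. Compounds at final 1 μM to 0.05 nM for 24 h at 37 °C, then luminescence read. Response normalized to plate controls and fitted with a 4-parameter logistic giving EC50.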

[1] = NEK7 degradation, read-out: NanoBiT Dmax
[2] = NEK7 degradation, read-out: NanoBiT DC50

CRBN-DDB1, sequence (Q96SW2 whole entry): as the sequence (Q96SW2 whole entry) above
CRBN-DDB1, sequence (Q16531 whole entry partner): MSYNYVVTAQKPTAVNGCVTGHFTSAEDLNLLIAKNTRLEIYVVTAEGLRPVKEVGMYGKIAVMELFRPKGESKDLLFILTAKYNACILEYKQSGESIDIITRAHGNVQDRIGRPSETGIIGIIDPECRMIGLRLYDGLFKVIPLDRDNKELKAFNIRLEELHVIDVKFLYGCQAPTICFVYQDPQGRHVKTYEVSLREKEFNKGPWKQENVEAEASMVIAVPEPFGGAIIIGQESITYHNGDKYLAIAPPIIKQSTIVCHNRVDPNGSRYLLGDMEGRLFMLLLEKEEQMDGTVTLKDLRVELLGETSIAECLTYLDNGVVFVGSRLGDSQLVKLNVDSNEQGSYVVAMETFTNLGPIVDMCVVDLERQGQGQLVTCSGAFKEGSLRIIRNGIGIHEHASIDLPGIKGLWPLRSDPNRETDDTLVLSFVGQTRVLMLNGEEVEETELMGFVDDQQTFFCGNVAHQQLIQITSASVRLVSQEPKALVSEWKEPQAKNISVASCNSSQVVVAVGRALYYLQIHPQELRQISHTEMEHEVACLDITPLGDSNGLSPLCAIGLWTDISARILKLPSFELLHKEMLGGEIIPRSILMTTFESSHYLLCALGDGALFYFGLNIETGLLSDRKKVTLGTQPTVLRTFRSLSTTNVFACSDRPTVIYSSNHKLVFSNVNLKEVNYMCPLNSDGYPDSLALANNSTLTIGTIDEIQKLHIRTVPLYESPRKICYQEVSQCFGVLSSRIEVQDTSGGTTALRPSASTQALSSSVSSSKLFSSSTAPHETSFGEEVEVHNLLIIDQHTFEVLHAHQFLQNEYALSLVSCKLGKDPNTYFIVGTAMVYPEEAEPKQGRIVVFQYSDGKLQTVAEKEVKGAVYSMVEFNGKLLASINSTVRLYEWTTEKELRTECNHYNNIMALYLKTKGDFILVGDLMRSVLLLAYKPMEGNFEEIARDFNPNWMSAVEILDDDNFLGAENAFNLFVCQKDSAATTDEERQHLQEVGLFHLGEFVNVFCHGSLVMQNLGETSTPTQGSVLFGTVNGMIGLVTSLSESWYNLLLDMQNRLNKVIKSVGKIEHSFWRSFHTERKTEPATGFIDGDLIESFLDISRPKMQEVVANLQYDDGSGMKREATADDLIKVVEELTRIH

| SMILES | EC50 (CRBN-DDB1) [nM] | EC50 (CRBN-DDB1; HTRF class, Cereblon binding) [nM] | Dmax (NEK7; read-out: NEK7 NanoBiT Dmax) [%] | Dmax (NEK7; [1]) [%] | DC50 (NEK7; read-out: NEK7 NanoBiT DC50) [nM] | DC50 (NEK7; [2]) [nM] |
| --- | --- | --- | --- | --- | --- | --- |
| CC(C)(C(=O)NCc1cc(Cl)c(C2CCC(=O)NC2=O)c(Cl)c1)c1ncc(Cl)cn1 (stereo not drawn) [Compound 194] | 120 | 100 to 1000 | 96 | > 75 | 1 | ≤ 100 |
| CC(C)(C(=O)NCc1cc(Cl)c(C2CCC(=O)NC2=O)c(Cl)c1)c1ncc(CC(F)(F)F)cn1 (stereo not drawn) [Compound 195] | 220 | 100 to 1000 | 63 | 50 to 75 | 138 | 100 to 1000 |
| CC(C)(C(=O)NCc1cc(Cl)c(C2CCC(=O)NC2=O)c(Cl)c1)c1cnc(C(F)F)cn1 (stereo not drawn) [Compound 196] | 310 | 100 to 1000 | 90 | > 75 | 9 | ≤ 100 |
| Cc1coc(C(C)(C)C(=O)NCc2cc(Cl)c(C3CCC(=O)NC3=O)c(Cl)c2)n1 (stereo not drawn) [Compound 197] | 120 | 100 to 1000 | 87 | > 75 | 13 | ≤ 100 |
| CC(C)(C(=O)NCc1cc(Cl)c(C2CCC(=O)NC2=O)c(Cl)c1)c1nocc1C1CC1 (stereo not drawn) [Compound 198] | 130 | 100 to 1000 | 83 | > 75 | 22 | ≤ 100 |
| CC(C)(C(=O)NCc1cc(Cl)c(C2CCC(=O)NC2=O)c(Cl)c1)c1ncoc1C(F)(F)F (stereo not drawn) [Compound 199] | 140 | 100 to 1000 | 67 | 50 to 75 | 99 | ≤ 100 |
| CC(C)(C(=O)NCc1cc(Cl)c(C2CCC(=O)NC2=O)c(Cl)c1)c1nnc(C(F)F)o1 (stereo not drawn) [Compound 200] | 170 | 100 to 1000 | 74 | 50 to 75 | 46 | ≤ 100 |
| Cc1conc1C(C)(C)C(=O)NCc1cc(Cl)c(C2CCC(=O)NC2=O)c(Cl)c1 (stereo not drawn) [Compound 201] | 140 | 100 to 1000 | 93 | > 75 | 7 | ≤ 100 |
| CC(C)(O)c1ccc(C(C)(C)C(=O)NCc2cc(Cl)c(C3CCC(=O)NC3=O)c(Cl)c2)nn1 (stereo not drawn) [Compound 203] | 200 | 100 to 1000 | 94 | > 75 | 4 | ≤ 100 |
| COc1ccc(C(C)(C)C(=O)NCc2cc(Cl)c(C3CCC(=O)NC3=O)c(Cl)c2)nn1 (stereo not drawn) [Compound 204] | 80 | ≤ 100 | 98 | > 75 | 1 | ≤ 100 |
| Cc1ccc(C(C)(C)C(=O)NCc2cc(Cl)c(C3CCC(=O)NC3=O)c(Cl)c2)cn1 (stereo not drawn) [Compound 205] | 110 | 100 to 1000 | 97 | > 75 | 1 | ≤ 100 |
| CC(C)(C(=O)NCc1cc(Cl)c(C2CCC(=O)NC2=O)c(Cl)c1)c1cnc(CO)cn1 (stereo not drawn) [Compound 206] | 100 | 100 to 1000 | 85 | > 75 | 18 | ≤ 100 |
| CC1(c2cnc(C(C)(C)C(=O)NCc3cc(Cl)c(C4CCC(=O)NC4=O)c(Cl)c3)nc2)CC1 (stereo not drawn) [Compound 207] | 90 | ≤ 100 | 82 | > 75 | 19 | ≤ 100 |
| CC(C)(C(=O)NCc1cc(Cl)c(C2CCC(=O)NC2=O)c(Cl)c1)c1nnc(C(F)(F)F)o1 (stereo not drawn) [Compound 208] | 170 | 100 to 1000 | 56 | 50 to 75 | 345 | 100 to 1000 |
| COc1cnc(C(C)(C)C(=O)NCc2cc(Cl)c(C3CCC(=O)NC3=O)c(Cl)c2)cn1 (stereo not drawn) [Compound 209] | 90 | ≤ 100 | 97 | > 75 | 1 | ≤ 100 |
| CC(C)(C(=O)NCc1cc(Cl)c(C2CCC(=O)NC2=O)c(Cl)c1)c1ccc(OC(F)F)nn1 (stereo not drawn) [Compound 210] | 460 | 100 to 1000 | 96 | > 75 | 2 | ≤ 100 |
| CC(C)(C(=O)NCc1cc(Cl)c(C2CCC(=O)NC2=O)c(Cl)c1)C1CCCCC1 (stereo not drawn) [Compound 211] | 900 | 100 to 1000 | 90 | > 75 | 8 | ≤ 100 |
| Cc1nc(C(C)(C)C(=O)NCc2cc(Cl)c(C3CCC(=O)NC3=O)c(Cl)c2)oc1C (stereo not drawn) [Compound 212] | 70 | ≤ 100 | 90 | > 75 | 6 | ≤ 100 |
| CC(C)(C(=O)NCc1cc(Cl)c(C2CCC(=O)NC2=O)c(Cl)c1)C1CCCC1 (stereo not drawn) [Compound 213] | 80 | ≤ 100 | 78 | > 75 | 33 | ≤ 100 |
| CC(C)(C(=O)NCc1cc(Cl)c(C2CCC(=O)NC2=O)c(Cl)c1)c1nccc(CO)n1 (stereo not drawn) [Compound 215] | 120 | 100 to 1000 | 65 | 50 to 75 | 118 | 100 to 1000 |
| COc1nc(C(C)(C)C(=O)NCc2cc(Cl)c(C3CCC(=O)NC3=O)c(Cl)c2)ncc1C (stereo not drawn) [Compound 216] | 100 | ≤ 100 | 82 | > 75 | 21 | ≤ 100 |
| COCc1ccnc(C(C)(C)C(=O)NCc2cc(Cl)c(C3CCC(=O)NC3=O)c(Cl)c2)n1 (stereo not drawn) [Compound 217] | 150 | 100 to 1000 | 56 | 50 to 75 | 327 | 100 to 1000 |
| CC(C)(C(=O)NCc1cc(Cl)c(C2CCC(=O)NC2=O)c(Cl)c1)c1nc(C2CC2)no1 (stereo not drawn) [Compound 218] | 80 | ≤ 100 | 71 | 50 to 75 | 49 | ≤ 100 |
| CC(C)(C(=O)NCc1cc(Cl)c(C2CCC(=O)NC2=O)c(Cl)c1)c1nc(C(F)F)no1 (stereo not drawn) [Compound 219] | 80 | ≤ 100 | 72 | 50 to 75 | 47 | ≤ 100 |
| CC(C)(C(=O)NCc1cc(Cl)c(C2CCC(=O)NC2=O)c(Cl)c1)c1nocc1C(F)(F)F (stereo not drawn) [Compound 220] | 150 | 100 to 1000 | 91 | > 75 | 8 | ≤ 100 |
| COc1cnc(C(C)(C)C(=O)NCc2cc(Cl)c(C3CCC(=O)NC3=O)c(Cl)c2)nc1C (stereo not drawn) [Compound 221, N-(3,5-dichloro-4-(2,6-dioxopiperidin-3-yl)benzyl)-2-(5-methoxy-4-methylpyrimidin-2-yl)-2-methylpropanamide] | 80 | ≤ 100 | 83 | > 75 | 19 | ≤ 100 |
